This note sets out measurements from EP0401096A1, “Agents and complexes of ion Mg++ facilitating absorption of magnesium in a human or animal organism, and pharmaceutical or dietetic compositions useful for the administration of magnesium in a human or animal organism” (LABORATOIRES LUCIEN, priority 1989, dated 1990).

Data set [1] is described as follows: Magnesium balance in rats after oral administration (experiment coded 1.33, 4 lots of 18). The class given is in vivo, rat. As to conditions: mean (M), experiment 1.33. An excerpt: D'autres expérimentations basées sur des protocoles comparables ont confirmé les résultats ci-dessus. Elles ne feront pas toutefois l'objet d'une présentation en détails. Seuls les résultats de l'expérimentation suivante mettant en jeu l'acide malique et l'acide citrique seront présentés de façon globale dans les tableaux 10 et 11 ci-après.
La nouvelle expérimentation (codée 1.33) a été réalisée sur 4 lots de 18 animaux chacun, les lots I, II et III recevant les mêmes traitements que ceux administrés aux lots correspondants dans le cadre de l'expérimentation précédente et le lot IV recevant l'association "MgCl2 + acide citrique" à la dose de 38,88 mg de Mg2+/kg sous forme de MgCl2 + 1345 mg d'acide citrique/kg, sous un volume de 40 ml/kg d'eau déminéralisée (pH ajusté à 5), ce qui correspond à une concentration en magnésium CMg = 0,04 mol.dm-3 et à une concentration de citrate CTA = 0,16 mol.dm-3. Tableau 10

Data set [2] is described as follows: Magnesium balance in rats after oral administration (first experiment, 3 lots of 20). The class given is in vivo, rat. Particulars: mean (M), oral 38,88 mg de Mg2+/kg. As to the method: L'essai porte sur 60 rats mâles S.P.F. de souche "CD", d'un poids moyen de 60 à 80 g à leur arrivée. Ils sont maintenus en animalerie conventionnelle dans des conditions identiques de température (21°C +/- 1°C), d'hygrométrie (40 à 70 %) et de luminosité (12h/24).
Dès leur arrivée, les animaux sont placés en cage à métabolisme et reçoivent un aliment contenant 570 mg de Mg2+/kg : concentration nécessaire et suffisante pour maintenir chez l'animal une magnésémie normale.
4 jours après leur arrivée, au temps "t-16h" de l'essai, soit 16 h avant l'administration des traitements (temps "t"), les animaux sont pesés, mis à jeun et le volume d'eau déminéralisée mis à leur disposition est exactement mesuré.
Au temps "t-1h" soit 1 h avant l'administration des traitements, l'eau de boisson est retirée. Elle est redistribuée 30 minutes après cette administration, le volume étant exactement mesuré.
Au temps "t+24h" les animaux sont sacrifiés par dislocation cervicale et le contenu de la vessie et des intestins est prélevé.
Les animaux sont répartis en 3 lots de 20 animaux chacun : • . Lot I : Témoins recevant 40 ml/kg d'eau déminéralisée; • . Lot II : Traités recevant 38,88 mg de Mg2+/kg sous forme de MgCl2, sous un volume de 40 ml/kg d'eau déminéralisée; • . Lot III : Traités recevant l'association "MgCl2 + acide malique" à la dose de 38,88 mg de Mg2+/kg sous forme de MgCl2 + 408 mg d'acide malique/kg, sous un volume de 40 ml/kg d'eau déminéralisée (pH ajusté à 5), ce qui correspond à une concentration en magnésium CMg = 0,04 mol.dm-3 et à une concentration de (DL)-malate CDLM = 0,076 mol.dm-3.
• a/ - Avant traitement : "t - 16 h" à "t" . Recueil des urines et mesure du volume. . Mesure de la consommation hydrique/15 h (les animaux étant privés d'eau de boisson 1 h avant l'administration des traitements). • b/ - Traitement : "t" . Pesée des animaux. . Administration des traitements, voie orale, par tubage oesophagien. • c/ - Après traitement : "t" à "t + 24 h" • c.1. Exploration urinaire : . […]

Data set [3] in a line: Potentiometric titration, formation constants of magnesium-ligand complexes ([…], ZAPAPLOT, PSEUDOPLOT). The data set is classed as physicochemical. As to conditions: magnésium-malonate, 37°C. An excerpt:
La complexation dans chaque système magnésium-ligand a ensuite été étudiée à partir de plusieurs titrages en solution aqueuse du ligand en présence de magnésium, pour différents rapports de concentrations métal-ligand correspondant à l'éventail le plus large possible de conditions thérapeutiques. Ces dosages se traduisent graphiquement par le tracé des courbes de protonation s = f ( -log[H] ), où s est le nombre moyen de protons liés au ligand. Ce type de courbes permet de visualiser la complexation. Par exemple, sur la figure 1, relative au système magnésium-malonate, on a représenté la courbe de protonation de référence du ligand par un trait plein et matérialisé les points expérimentaux des titrages du ligand en présence de magnésium par les symboles +, x, , □, ◁ dans l'ordre des rapports de concentrations métal/ligand croissants. On remarque deux zones de pH différentes : - l'une, de pH 2 à 3, pour laquelle les points se superposent à la courbe de protonation de référence, ce qui dénote une absence totale de complexation, - l'autre, de pH 3 à 7, pour laquelle les points sont décalés vers la gauche par rapport à la protonation de référence, c'est-à-dire vers des pH plus acides. Il y a donc une libération d'ions H+ en solution due à la complexation des ions Mg2+ par le malonate.
Cette complexation est confirmée par le tracé de la courbe de formation expérimentale p = f ( -log [L] ) au moyen d'un autre programme (ZAPAPLOT) où p est le nombre moyen de ligands liés au métal (représenté par le degré de formation DF à la figure 2). L'allure de cette courbe donne une idée de la forme sous laquelle le ligand intervient dans les complexes formés et permet d'estimer la valeur de leurs constantes de formation.
(§1) A partir des données expérimentales des titrages, le programme […] calcule les constantes par la méthode des moindres carrés. Parmi les différentes combinaisons de complexes possibles, seules sont retenues celles pour lesquelles les critères numériques (notamment la somme des carrés des résidus) sont convenables. Le meilleur ensemble est finalement choisi d'après le tracé des courbes de formation simulées au moyen d'un troisième programme informatique (PSEUDOPLOT) : c'est celui qui permet d'obtenir la meilleure coïncidence entre courbes expérimentale (figure 2) et simulée (figure 3).

A short description of data set [4]: Potentiometric titration, protonation constants of the ligand ([…]). The class given is physicochemical. Particulars: proton-malonate, aqueous solution, 37°C. Here is the method: La méthode potentiométrique associée aux techniques informatiques a été utilisée pour cette étude. Les constantes de protonation du ligand, utilisées par la suite comme références, ont été calculées au moyen d'un programme informatique ([…]) à partir de données expérimentales provenant de titrages réalisés en solution aqueuse à 37°C et sous atmosphère d'azote.
as §1

Data set [5] is described as follows: Potentiometric titration, formation constants of calcium-ligand complexes. The data set is classed as physicochemical. As to conditions: calcium-malonate, complexe ML (charge 0); 37°C. An excerpt:
Trois cas possibles a priori ont été effectivement rencontrés : • i) si aucune complexation n'est constatée dans les conditions expérimentales précisées plus haut, c'est à dire si le degré de complexation reste nul sur tout le domaine de concentrations en ligand examiné, aucune espèce complexe indépendante ne peut exister dans le fluide gastro-intestinal. Ceci ne signifie pas que les ligands envisagés ne puissent pas coordonner le magnésium à des concentrations beaucoup plus élevées, mais cette possibilité se rapportant à des conditions extra-physiologiques ne présente pas d'intérêt dans le cadre de l'invention. • ii) si l'ensemble de complexes sélectionné d'après les critères ci-dessus n'est constitué que d'espèces ionisées, il est impossible à ces dernières de se dissoudre dans la membrane phospholipidique; les ligands correspondants ne peuvent donc être utilisés comme vecteurs pour l'absorption gastro-intestinale du magnésium. • iii) si l'ensemble retenu contient une ou plusieurs espèces neutres, les ligands correspondants peuvent être a priori des vecteurs efficaces pour l'absorption du magnésium par les membranes séparant le biofluide d'un biofluide voisin. Leur efficacité dépendra toutefois de la proportion de ces espèces neutres dans les conditions thérapeutiques. […]

[6] abbreviates: coefficient d'utilisation digestive.

For `[Cl-].[Cl-].[Mg+2]` [Lot II, MgCl2], the C. abs. in data set [1] (coefficient d'absorption) is reported as 30,19; in data set [2] (coefficient d'absorption), 38,948. Also, the results for the C.u.d. in data set [1] (setting [6]) and in data set [2] (setting [6]) were 66,89 and 73,617, respectively. For the same compound, the C.r. is 43,78 in data set [1] (coefficient de rétention) and 50,083 in data set [2] (coefficient de rétention). In data set [1] (faecal magnesium, oral 38,88 mg de Mg2+/kg), the MgF/24 h is 2,003 mg/100 g de rat. For the same compound, the MgU/24 h in data set [1] (urinary magnesium, oral 38,88 mg de Mg2+/kg) is on record as 1,873 mg/100 g de rat.
Take `O=C(O)CC(=O)O` [MLO, malonate]: the “log β” value in data set [3] (complexe ML3) was 5,266; in data set [3] (complexe ML (charge 0)) it was 2,064; in data set [3] (complexe MLH-1), 6,326; in data set [3] (complexe MLH), 5,524; in data set [4] (complexe LH2), 7,815; in data set [4] (complexe LH) it was 5,235. In data set [5], the “log β” value is 1,511.
